{
  "source": "paper PMC7397262",
  "about": "“Design, Synthesis and Biological Evaluation of Novel Triazole N-acylhydrazone Hybrids for Alzheimer’s Disease” (Molecules, 2020)",
  "key": {"SH-SY5Y cells [1]": {"test_system": "SH-SY5Y cells", "experiment": "Intracellular GSH levels in SH-SY5Y cells, MCB assay", "format": "cell-based, human", "conditions": "24 h, 2.5–10 μM", "method": "Among the endogenous antioxidants in the central nervous system, glutathione (GSH) plays an important role to maintain the redox balance by directly interacting with ROS formed during the physiological metabolic processes. […] We therefore evaluated the ability of compounds 3a, 3b and 3e to modulate the intracellular GSH levels in SH-SY5Y cells, after 24 h of treatment using the fluorescent probe monochlorobimane (MCB).\n(§1) Human neuronal SH-SY5Y cells were routinely grown in Dulbecco’s modified Eagle’s Medium supplemented with 10% fetal bovine serum, 2 mM L-glutamine, 50 U/mL penicillin and 50 µg/mL streptomycin at 37 °C in a humidified incubator with 5 % CO2.\nSH-SY5Y cells were seeded in a black 96-well plate at 2 × 10^4 cells/well, incubated for 24 h and then treated with the compounds for 24 h. GSH levels were evaluated by using monochlorobimane, as previously described"}, "SH-SY5Y cells [2]": {"test_system": "SH-SY5Y cells", "experiment": "ROS formation induced by t-BOOH in SH-SY5Y cells, H2DCF-DA probe", "format": "cell-based, human", "parameters": "key to Direct Antioxidant Activity in SH-SY5Y Cells (percentage inhibition of ROS formation induced by t-BOOH): In: inactive", "conditions": "for inhibition at 10 µM: Homo sapiens, SH-SY5Y, chronic treatment 24 h with compound 10 μM, then t-BOOH 100 μM for 30 min, read-out: Indirect Antioxidant Activity in SH-SY5Y Cells (percentage inhibition of ROS formation induced by t-BOOH); for Direct Antioxidant Activity in SH-SY5Y Cells (percentage inhibition of ROS formation induced by t-BOOH): simultaneous treatment 30 min, compound 10 µM and t-BOOH 100 μM", "method": "In parallel, we evaluated the antioxidant activity of the compounds not associated with toxicity (Figure 5) against the ROS formation induced by t-BOOH in SH-SY5Y cells. To appraise the direct and indirect antioxidant activity, the SH-SY5Y cells were simultaneously treated for 30 min with 3a, 3b and 3e (10 µM) and t-BOOH (100 µM) or chronically treated for 24 h (the time necessary to activate the endogenous antioxidant system) with 3a, 3b and 3e (10 µM) and then exposed to t-BOOH (100 µM) for 30 min, respectively. Then, the intracellular ROS formation was detected by using the fluorescent probe 2′,7′-dichlorodihydrofluorescein diacetate (H2DCF-DA).\nas §1\nSH-SY5Y cells were seeded in a 96-well plate at 2 × 10^4 cells/well, incubated for 24 h, and then treated with compounds for 24 h before or during the treatment of 30 min with t-BOOH. ROS formation was evaluated by using the fluorescent probe H2DCF-DA, as previously described."}, "SH-SY5Y cells [3]": {"test_system": "SH-SY5Y cells", "experiment": "Toxicity in neuronal SH-SY5Y cells, MTT assay", "format": "cell-based", "conditions": "for toxic effects: 24 h, at 80 μM; for IC50: Homo sapiens, read-out: IC50 (concentration resulting in 50% inhibition of neuronal viability), 24 h, 2.5-80 μM", "method": "[…]. Human neuronal SH-SY5Y cells were routinely grown in Dulbecco’s modified Eagle’s Medium supplemented with 10% fetal bovine serum, 2 mM L-glutamine, 50 U/mL penicillin and 50 µg/mL streptomycin at 37 °C in a humidified incubator with 5 % CO2.\nSH-SY5Y cells were seeded in a 96-well plate at 2 × 10^4 cells/well, incubated for 24 h and then treated with the compounds for 24 h. Cell viability, in terms of mitochondrial metabolic function, was evaluated by 3-(4,5-dimethylthiazol-2-yl)-2,5-diphenyltetrazolium bromide (MTT) test, as previously described."}, "EeAChE": {"molecular_target": "T1, EeAChE (Electrophorus electricus, UniProt O42275)", "T1 construct": "purified from Electrophorus electricus; purchased Sigma-Aldrich type V-S; host or cells: Electrophorus electricus (natural source)", "T1 sequence (O42275 24-633)": "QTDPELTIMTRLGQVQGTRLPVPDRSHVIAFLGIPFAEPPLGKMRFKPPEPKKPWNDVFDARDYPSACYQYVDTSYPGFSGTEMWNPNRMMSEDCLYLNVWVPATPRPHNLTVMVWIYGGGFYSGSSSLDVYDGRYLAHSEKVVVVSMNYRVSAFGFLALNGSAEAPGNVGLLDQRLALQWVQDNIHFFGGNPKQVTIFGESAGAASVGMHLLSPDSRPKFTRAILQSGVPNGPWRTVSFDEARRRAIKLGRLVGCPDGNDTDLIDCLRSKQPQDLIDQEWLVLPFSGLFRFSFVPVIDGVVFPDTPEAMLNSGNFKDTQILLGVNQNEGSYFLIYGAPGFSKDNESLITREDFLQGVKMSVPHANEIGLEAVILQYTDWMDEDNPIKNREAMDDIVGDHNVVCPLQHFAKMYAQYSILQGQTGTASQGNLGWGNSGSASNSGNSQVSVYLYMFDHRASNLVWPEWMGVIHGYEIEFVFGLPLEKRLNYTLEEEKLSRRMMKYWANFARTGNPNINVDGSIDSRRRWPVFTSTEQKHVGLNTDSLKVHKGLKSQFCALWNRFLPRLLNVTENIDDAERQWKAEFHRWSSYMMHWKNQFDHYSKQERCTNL", "experiment": "AChE inhibition, modified Ellman kinetic assay", "format": "biochemical", "method": "(§2) For in vitro evaluation of inhibition of EeAChE (EC3.1.1.7, type V-S, purified from Electrophorus electricus) and eqBuChE (EC 3.1.1.8, purified from equine serum, both from Sigma-Aldrich), the kinetic assay was performed according to the Ellman method modified using 96-well plates as previously described. […]. Progression curves were acquired using the Softmax PRO 5.0 software (Molecular Devices) from which the maximum hydrolysis velocity was calculated and the analysis performed with the Prism 5 software (GraphPad Inc., La Jolla, CA, USA). […]. The solvent had no detectable effect at the highest concentration used (0.2% v/v)."}, "eqBuChE": {"molecular_target": "T2, eqBuChE (Equus caballus, UniProt P81908)", "T2 construct": "purified from equine serum; purchased Sigma-Aldrich; host or cells: equine serum (natural source)", "T2 sequence (P81908 whole entry)": "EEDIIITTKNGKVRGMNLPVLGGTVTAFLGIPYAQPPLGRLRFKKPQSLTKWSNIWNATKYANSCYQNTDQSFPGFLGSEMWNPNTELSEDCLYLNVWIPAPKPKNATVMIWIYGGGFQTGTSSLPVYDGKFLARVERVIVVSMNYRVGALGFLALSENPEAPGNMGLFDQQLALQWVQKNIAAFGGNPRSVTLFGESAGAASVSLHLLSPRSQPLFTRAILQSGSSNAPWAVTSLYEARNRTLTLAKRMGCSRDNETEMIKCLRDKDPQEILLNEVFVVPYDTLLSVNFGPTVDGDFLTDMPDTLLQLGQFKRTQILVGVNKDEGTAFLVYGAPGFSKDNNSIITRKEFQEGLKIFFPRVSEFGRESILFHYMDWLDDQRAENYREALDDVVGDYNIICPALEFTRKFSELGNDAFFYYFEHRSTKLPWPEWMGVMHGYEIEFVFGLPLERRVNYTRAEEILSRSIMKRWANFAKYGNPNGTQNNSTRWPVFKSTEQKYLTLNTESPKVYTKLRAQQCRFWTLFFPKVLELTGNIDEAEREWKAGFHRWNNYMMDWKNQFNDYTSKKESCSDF", "experiment": "BuChE inhibition, modified Ellman kinetic assay", "format": "biochemical", "method": "as §2"}, "SH-SY5Y cells [4]": {"test_system": "SH-SY5Y cells", "experiment": "Neuroprotective activity against Aβ42 oligomers in SH-SY5Y cells, MTT assay", "format": "cell-based, human", "conditions": "3e 5 µM with OAβ42 10 µM, 4 h", "method": "Given the best antioxidant profile of compound 3e we also evaluated its ability to protect the SH-SY5Y cells against the neurotoxicity elicited by Aβ42 peptide oligomers (OAβ42), soluble aggregates of Aβ peptides involved in the pathogenesis of AD.\nas §1\nAβ42 peptide (AnaSpec, Fremont, CA, USA) was first dissolved in 1,1,1,3,3,3-hexafluoroisopropanol to 1 mg/mL, sonicated, incubated at room temperature for 24 h, and lyophilised to obtain an unaggregated Aβ42 peptide film that was solubilised with DMSO and stored at −20 °C until use. The aggregation of Aβ42 peptide into oligomers was performed as previously described. SH-SY5Y cells were seeded in a 96-well plate at 3 × 10^4 cells/well, incubated for 24 h, and treated with the compounds for 24 h. The cells were then treated for 4 h with 3e [5 μM] and OAβ1-42 [10 μM]. The neuroprotective activity, in terms of increase in intracellular MTT granules, was measured by MTT assay, as previously described."}},
  "data": [
    {"smiles": "COc1cc(Cn2cc(C(=O)N/N=C/c3ccc(O)cc3)nn2)ccc1O", "note": "[3a, (E)-1-(4-Hydroxy-3-methoxybenzyl)-N’-(4-hydroxybenzylidene)-1H-1,2,3-triazole-4-carbohydrazide]", "values": [
      {"measurement": "effect on intracellular GSH levels", "setting": "SH-SY5Y cells [1]", "result": "increased the GSH levels"},
      {"measurement": "inhibition at 10 µM", "setting": "SH-SY5Y cells [2]", "result": 20.6, "unit": "%"},
      {"measurement": "Direct Antioxidant Activity in SH-SY5Y Cells (percentage inhibition of ROS formation induced by t-BOOH)", "setting": "SH-SY5Y cells [2]", "result": "In ^d"},
      {"measurement": "toxic effects", "setting": "SH-SY5Y cells [3]", "result": "did not show any toxic effects"},
      {"measurement": "IC50", "setting": "SH-SY5Y cells [3]", "result": "> 80", "unit": "µM"}
    ]},
    {"smiles": "COc1cc(Cn2cc(C(=O)N/N=C/c3cc(O)cc(O)c3)nn2)ccc1O", "note": "[3b, (E)-N’-(3,5-Dihydroxybenzylidene)-1-(4-hydroxy-3-methoxybenzyl)-1H-1,2,3-triazole-4-carbohydrazide]", "values": [
      {"measurement": "effect on intracellular GSH levels", "setting": "SH-SY5Y cells [1]", "result": "increased the GSH levels"},
      {"measurement": "inhibition at 10 µM", "setting": "SH-SY5Y cells [2]", "result": 14.1, "unit": "%"},
      {"measurement": "Direct Antioxidant Activity in SH-SY5Y Cells (percentage inhibition of ROS formation induced by t-BOOH)", "setting": "SH-SY5Y cells [2]", "result": "In"},
      {"measurement": "toxic effects", "setting": "SH-SY5Y cells [3]", "result": "did not show any toxic effects"},
      {"measurement": "IC50", "setting": "SH-SY5Y cells [3]", "result": "> 80", "unit": "µM"}
    ]},
    {"smiles": "COc1ccc(/C=N/NC(=O)c2cn(Cc3ccc(O)c(OC)c3)nn2)cc1", "note": "[3c, (E)-1-(4-Hydroxy-3-methoxybenzyl)-N’-(4-methoxybenzylidene)-1H-1,2,3-triazole-4-carbohydrazide]", "values": [
      {"measurement": "IC50", "setting": "SH-SY5Y cells [3]", "result": 10.3, "unit": "µM"}
    ]},
    {"smiles": "COc1cc(/C=N/NC(=O)c2cn(Cc3ccc(O)c(OC)c3)nn2)cc(OC)c1", "note": "[3d, (E)-N’-(3,5-Dimethoxybenzylidene)-1-(4-hydroxy-3-methoxybenzyl)-1H-1,2,3-triazole-4-carbohydrazide]", "values": [
      {"measurement": "IC50", "setting": "SH-SY5Y cells [3]", "result": 67.7, "unit": "µM"}
    ]},
    {"smiles": "COc1cc(/C=N/NC(=O)c2cn(Cc3ccc(O)c(OC)c3)nn2)ccc1O", "note": "[3e, (E)-1-(4-Hydroxy-3-methoxybenzyl)-N’-(4-hydroxy-3-methoxybenzylidene)-1H-1,2,3-triazole-4-carbo-hydrazide]", "values": [
      {"measurement": "effect on intracellular GSH levels", "setting": "SH-SY5Y cells [1]", "result": "increased the GSH levels"},
      {"measurement": "IC50", "setting": "EeAChE", "result": 26.3, "unit": "µM"},
      {"measurement": "inhibition at 30 µM", "setting": "EeAChE; read-out: inhibition of the AChE activity at the screening concentration", "result": "> 50", "unit": "%"},
      {"measurement": "inhibition at 10 µM", "setting": "SH-SY5Y cells [2]", "result": 35.2, "unit": "%"},
      {"measurement": "ability to inhibit BuChE", "setting": "eqBuChE", "result": "no relevant activity was detected"},
      {"measurement": "toxic effects", "setting": "SH-SY5Y cells [3]", "result": "did not show any toxic effects"},
      {"measurement": "IC50", "setting": "SH-SY5Y cells [3]", "result": "> 80", "unit": "µM"},
      {"measurement": "effect on loss of neuronal viability induced by OAβ42", "setting": "SH-SY5Y cells [4]", "result": "significantly reduced the loss of neuronal viability"}
    ]},
    {"smiles": "COc1cc(Cn2cc(C(=O)N/N=C/c3ccccc3)nn2)ccc1O", "note": "[3f, (E)-N’-Benzylidene-1-(4-hydroxy-3-methoxybenzyl)-1H-1,2,3-triazole-4-carbohydrazide]", "values": [
      {"measurement": "IC50", "setting": "SH-SY5Y cells [3]", "result": 63.8, "unit": "µM"}
    ]},
    {"smiles": "COc1cc(Cn2cc(C(=O)N/N=C/c3ccc(N4CCCCC4)cc3)nn2)ccc1O", "note": "[3g, (E)-1-(4-Hydroxy-3-methoxybenzyl)-N’-(4-(piperidin-1-yl)benzylidene)-1H-1,2,3-triazole-4-carbohydrazide]", "values": [
      {"measurement": "IC50", "setting": "SH-SY5Y cells [3]", "result": 10.3, "unit": "µM"}
    ]},
    {"smiles": "COc1cc(Cn2cc(C(=O)N/N=C/c3ccc(Cl)cc3)nn2)ccc1O", "note": "[3h, (E)-N’-(4-Chlorobenzylidene)-1-(4-hydroxy-3-methoxybenzyl)-1H-1,2,3-triazole-4-carbohydrazide]", "values": [
      {"measurement": "IC50", "setting": "SH-SY5Y cells [3]", "result": 3.02, "unit": "µM"}
    ]},
    {"smiles": "COc1cc(Cn2cc(C(=O)N/N=C/c3cccc(Cl)c3)nn2)ccc1O", "note": "[3i, (E)-N’-(3-Chlorobenzylidene)-1-(4-hydroxy-3-methoxybenzyl)-1H-1,2,3-triazole-4-carbohydrazide]", "values": [
      {"measurement": "IC50", "setting": "SH-SY5Y cells [3]", "result": 10.4, "unit": "µM"}
    ]},
    {"smiles": "COc1cc(Cn2cc(C(=O)N/N=C/c3ccccc3Cl)nn2)ccc1O", "note": "[3j, (E)-N’-(2-Chlorobenzylidene)-1-(4-hydroxy-3-methoxybenzyl)-1H-1,2,3-triazole-4-carbohydrazide]", "values": [
      {"measurement": "IC50", "setting": "SH-SY5Y cells [3]", "result": 28.3, "unit": "µM"}
    ]},
    {"smiles": "COc1cc(Cn2cc(C(=O)N/N=C/c3ccc(F)cc3)nn2)ccc1O", "note": "[3k, (E)-N’-(4-Fluorobenzylidene)-1-(4-hydroxy-3-methoxybenzyl)-1H-1,2,3-triazole-4-carbohydrazide]", "values": [
      {"measurement": "IC50", "setting": "SH-SY5Y cells [3]", "result": 3.62, "unit": "µM"}
    ]},
    {"smiles": "COc1cc(Cn2cc(C(=O)N/N=C/c3ccccc3F)nn2)ccc1O", "note": "[3l, (E)-N’-(2-Fluorobenzylidene)-1-(4-hydroxy-3-methoxybenzyl)-1H-1,2,3-triazole-4-carbohydrazide]", "values": [
      {"measurement": "IC50", "setting": "SH-SY5Y cells [3]", "result": 68.5, "unit": "µM"}
    ]},
    {"smiles": "COc1cc(Cn2cc(C(=O)N/N=C/c3cccc(F)c3)nn2)ccc1O", "note": "[3m, (E)-N’-(3-Fluorobenzylidene)-1-(4-hydroxy-3-methoxybenzyl)-1H-1,2,3-triazole-4-carbohydrazide]", "values": [
      {"measurement": "IC50", "setting": "SH-SY5Y cells [3]", "result": 42.9, "unit": "µM"}
    ]}
  ]
}
